Measurements taken from patent US6608085B1, “4-quinolinemethanol derivatives as purine receptor antagonists (II)” (Vernalis Research Limited, priority 1998, dated 2003).
pKi: −log10 of the molar value. Structures can show the parent of a compound that is named as a salt.

Key:
[1] = biological target: human adenosine A2A receptors (Homo sapiens, UniProt P29274); assay: Binding affinities at hA2A receptors, displacement of [3H]-CGS 21680; conditions: displacement of radioligand [3H]-CGS 21680, in vitro
Parkinsonian patients = conditions: cited from earlier work
[2] = test system: haloperidol-induced deficits in locomotor activity in mice; assay: Haloperidol-induced hypolocomotion model; format: in vivo; conditions: 10 mg/kg intraperitoneally, haloperidol 0.2 mg/kg
Excerpt: This approach is also considered a valid method for screening drugs with potential antiparkinsonian effects. Thus, the ability of novel adenosine antagonists to block haloperidol-induced deficits in locomotor activity in mice can be used to assess both in vivo and potential antiparkinsonian efficacy.
Female TO mice (25-30 g) obtained from TUCK, UK, are used for all experiments. Animals are housed in groups of 8 [cage size—40 (width)×40 (length)×20 (height)cm] under 12 hr light/dark cycle (lights on 08:00 hr), in a temperature (20±2° C.) and humidity (55±15%) controlled environment. Animals have free access to food and water, and are allowed at least 7 days to acclimatize after delivery before experimental use.
Liquid injectable haloperidol (1 ml Serenance ampoules from Baker Norton, Harlow, Essex, each containing haloperidol BP 5 mg, batch #P424) are diluted to a final concentration of 0.02 mg/ml using saline. Novel test compounds are typically prepared as aqueous suspensions in 8% Tween. All compounds are administered intraperitoneally in a volume of 10 ml/kg.
1.5 hours before testing, mice are administered 0.2 mg/kg haloperidol, a dose that reduces baseline locomotor activity by at least 50%. […] Horizontal locomotor activity is determined by placing the cages within a frame containing a 3×6 array of photocells linked to a computer, which tabulates beam breaks. […]

cataleptic responses = conditions: cited from earlier work

Chain of human adenosine A2A receptors (P29274 whole entry): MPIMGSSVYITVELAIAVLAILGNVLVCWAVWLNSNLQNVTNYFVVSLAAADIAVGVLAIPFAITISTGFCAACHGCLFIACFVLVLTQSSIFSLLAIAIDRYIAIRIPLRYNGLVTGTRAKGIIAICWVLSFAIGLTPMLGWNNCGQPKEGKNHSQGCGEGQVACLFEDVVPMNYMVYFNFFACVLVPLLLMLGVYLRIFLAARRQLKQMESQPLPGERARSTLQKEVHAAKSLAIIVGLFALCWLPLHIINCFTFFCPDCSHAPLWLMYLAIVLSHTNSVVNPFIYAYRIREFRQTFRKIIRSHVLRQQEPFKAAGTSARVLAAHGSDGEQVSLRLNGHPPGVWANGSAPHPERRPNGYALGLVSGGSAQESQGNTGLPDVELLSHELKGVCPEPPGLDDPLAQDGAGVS

Structure (SMILES): FC(F)(F)c1cc([C@H]2OCCN3CCCC[C@@H]23)c2cccc(C(F)(F)F)c2n1 [Example 15, (1R, 9aS)-1,3,4,6,7,8,9,9a-Octahydrol-(2,8-bis(trifluoromethyl)-4-quinolinyl)-pyrido[2,1-c][1,4]oxazine]
- pKi [1]: 5.93

Structure (SMILES): Cn1c(=O)c2[nH]cnc2n(C)c1=O [Theophylline, 1,3-dimethylxanthine]
- mean objective disability scores (Parkinsonian patients; 15 Parkinsonian patients, up to 12 weeks, 150 mg/day): significant improvements
- patients reporting moderate or marked subjective improvement (Parkinsonian patients; of 15 Parkinsonian patients, up to 12 weeks, 150 mg/day): 11
- serum theophylline levels (Parkinsonian patients; slow release oral preparation 150 mg/day, after one week): 4.44 mg/L

Structure (SMILES): O=C1CO[C@H](c2cc(C(F)(F)F)nc3c(C(F)(F)F)cccc23)[C@@H]2CCCCN12 [Example 14, (1R, 9aS)-1,3,4,6,7,8,9,9a-Octahydro-1-(2,8-bis(trifluoromethyl)-4-quinolinyl)-pyrido[2,1-c][1,4]oxazine-4-one]
- pKi [1]: 5.75

Structure (SMILES): OC(CNc1ccccc1)c1cc(C(F)(F)F)nc2c(C(F)(F)F)cccc12 (stereo not drawn) [Example 23, α-Phenylaminomethyl-2,8-bis(trifluoromethyl)-4-quinolinemethanol]
- pKi [1]: 5.56

Structure (SMILES): O[C@H](c1cc(C(F)(F)F)nc2c(C(F)(F)F)cccc12)[C@@H]1CCCCN1CCc1ccccc1 [Example 38, (11S, 2′R)-α-(1-Phenethyl-2-piperidinyl)-2,8-bis(trifluoromethyl)-4-quinolinemethanol]
- pKi [1]: 6.04

Structure (SMILES): O[C@@H](c1cc(C(F)(F)F)nc2c(C(F)(F)F)cccc12)[C@@H]1CCCN1 (as salt: hydrochloride) [Example 45, (11S, 2′S)-α-(2-Pyrrolidinyl)-2,8-bis(trifluoromethyl)-4-quinolinemethanol Hydrochloride]
- melting point: 246 °C (dec.)

Structure (SMILES): OC(CN1CCOCC1)c1cc(C(F)(F)F)nc2c(C(F)(F)F)cccc12 (stereo not drawn) [Example 18, α-Morpholinomethyl-2,8-bis(trifluoromethyl)-4-quinolinemethanol]
- melting point: 129 to 130 °C

Structure (SMILES): Nc1cc([C@@H](O)[C@@H]2CCCCN2)c2ccccc2n1 (relative stereo) (as salt: salt)
- melting point: 225 °C (dec.)

Structure (SMILES): CC(C)CNCC(O)c1cc(C(F)(F)F)nc2c(C(F)(F)F)cccc12 (stereo not drawn) [Example 25, α-Isobutylaminomethyl-2,8-bis(trifluoromethyl)-4-quinolinemethanol]
- pKi [1]: 5.90

Structure (SMILES): O[C@@H](c1cc(C(F)(F)F)nc2ccccc12)[C@H]1CCCCN1 (relative stereo) [Example 39, (11S*, 2′R*)-α-(2-Piperidinyl)-2-trifluoromethyl-4-quinolinemethanol (Racemic)]
- reversal of haloperidol-induced hypolocomotion [2]: significantly reversed

Structure (SMILES): CN1CCCC[C@H]1[C@H](O)c1cc(C(F)(F)F)nc2c(C(F)(F)F)cccc12 [Example 7, (11R, 2′S)-α-(1-Methyl-2-piperidinyl)-2,8-bis(trifluoromethyl)-4-quinolinemethanol]
- pKi [1]: 7.35

Structure (SMILES): O[C@@H](c1cc(C(F)(F)F)nc2c(C(F)(F)F)cccc12)[C@@H]1CCCN1 [Example 45, (11S, 2′S)-α-(2-Pyrrolidinyl)-2,8-bis(trifluoromethyl)-4-quinolinemethanol Hydrochloride]
- pKi [1]: 5.69

Structure (SMILES): CC(C)(C)OC(=O)N1CCC[C@H]1[C@H](O)c1cc(C(F)(F)F)nc2c(C(F)(F)F)cccc12 [Example 43, (11R, 2′S)-α-(1-tert-Butoxycarbonyl-2-pyrrolidinyl)-2,8-bis(trifluoromethyl)-4-quinolinemethanol]
- pKi [1]: 5.57

Structure (SMILES): OC(CN1CCCCC1)c1cc(C(F)(F)F)nc2c(C(F)(F)F)cccc12 (stereo not drawn) [Example 20, α-Piperidinomethyl-2,8-bis(trifluoromethyl)-4-quinolinemethanol]
- melting point: 129.5 °C

Structure (SMILES): CO[C@H](c1cc(C(F)(F)F)nc2c(C(F)(F)F)cccc12)[C@@H]1CCCCN1 [Example 32, (1′R, 2S)-2-(α-Methoxy-2,8-bis(trifluoromethyl)-4-quinolinemethyl)piperidine Hydrochloride]
- pKi [1]: 6.65

Structure (SMILES): O[C@H](c1cc(C(F)(F)F)nc2c(C(F)(F)F)cccc12)[C@@H]1CCCN1 [Example 42, (11R, 2′S)-α-(2-pyrrolidinyl)-2,8-bis(trifuoromethyl)-4-quinolinemethanol Hydrochloride]
- pKi [1]: 6.34

Structure (SMILES): FC(F)(F)c1cc([C@H]2OCN3CCCC[C@@H]23)c2cccc(C(F)(F)F)c2n1 [Example 11, (1R, 8aS)-1,5,6,7,8,8a-Hexahydro-1-(2,8-bis(trifluoromethyl)-4-quinolinyl)-3H-oxazolo[3,4-a]pyridine]
- pKi [1]: 7.20

Structure (SMILES): CC[C@H](C)[C@H](N)[C@@H](O)c1cc(C(F)(F)F)nc2c(C(F)(F)F)cccc12 [Example 40, (11S, 1′S, 2′S)-α-(1-Amino-2-methyl-1-butyl)-2,8-bis(trifluoromethyl)-4-quinolinemethanol Hydrochloride]
- pKi [1]: 6.22

Structure (SMILES): O[C@@H](c1cc(C(F)(F)F)nc2ccccc12)[C@H]1CCCCN1 (racemic) [Example 39, (11S*, 2′R*)-α-(2-Piperidinyl)-2-trifluoromethyl-4-quinolinemethanol (Racemic)]
- pKi [1]: 6.39

Structure (SMILES): CO[C@H](c1cc(C(F)(F)F)nc2c(C(F)(F)F)cccc12)[C@@H]1CCCCN1C [Example 8, (11R, 2′S)-4-(1-Methoxy-1-(1-methyl-2-piperidinyl)methyl)-2,8-bis(trifluoromethyl)quinoline]
- pKi [1]: 6.38

Structure (SMILES): O[C@H](c1cc(C(F)(F)F)nc2c(C(F)(F)F)cccc12)[C@@H]1CCCN1 (as salt: hydrochloride) [Example 42, (11R, 2′S)-α-(2-pyrrolidinyl)-2,8-bis(trifuoromethyl)-4-quinolinemethanol Hydrochloride]
- melting point: 230 °C (dec.)

Structure (SMILES): CC(=O)N1CCCC[C@H]1[C@H](O)c1cc(C(F)(F)F)nc2c(C(F)(F)F)cccc12 [Example 5, (11R, 2′S)-α-(1-Acetyl-2-piperidinyl)-2,8-bis(trifluoromethyl)-4-quinolinemethanol]
- pKi [1]: 5.76

Structure (SMILES): Cc1cccc2c([C@@H](O)[C@@H]3CCCCN3)cc(O)nc12 (relative stereo)
- melting point: 225 °C (dec.)

Structure (SMILES): COc1cc([C@@H](O)[C@@H]2CCCCN2)c2cccc(C)c2n1 (racemic) [Example 48, (11R*, 2′S*)-2-Methoxy-8-methyl-α-(2-piperidinyl)-4-quinolinemethanol (Racemic)]
- pKi [1]: 5.96

Structure (SMILES): CNCC(O)c1cc(C(F)(F)F)nc2c(C(F)(F)F)cccc12 (stereo not drawn) [Example 22, α-Methylaminomethyl-2,8-bis(trifluoromethyl)-4-quinolinemethanol]
- pKi [1]: 5.82

Structure (SMILES): CCCn1c(=O)c2c(nc(/C=C/c3ccc(OC)c(OC)c3)n2C)n(CCC)c1=O [KF 17837, (E)-8-(3,4-dimethoxystyryl)-1,3-dipropyl-7-methylxanthine]
- anticataleptic effects of a subthreshold dose of L-DOPA plus benserazide (cataleptic responses; in vivo): potentiated
- catalepsy induced by haloperidol and reserpine (cataleptic responses; in vivo): reduced
- cataleptic responses induced by intracerebroventricular CGS 21680 (cataleptic responses; oral administration): significantly ameliorated

Structure (SMILES): FC(F)(F)c1cc([C@H]2OCN3CCCC[C@H]23)c2cccc(C(F)(F)F)c2n1 [Example 13, (1R, 8aR)-1,5,6,7,8,8a-Hexahydro-1-(2,8-bis(trifluoromethyl)-4-quinolinyl)-3H-oxazolo[3,4-a]pyridine]
- pKi [1]: 6.72

Structure (SMILES): CC(C)C[C@H](N)C(O)c1cc(C(F)(F)F)nc2c(C(F)(F)F)cccc12 (mixture of isomers) [Example 34, α-(-Amino-3-methylbutyl)-2,8-bis(trifluoromethyl)-4-quinolinemethanol]
- pKi [1]: 5.92

Structure (SMILES): OC(CNCc1ccccc1)c1cc(C(F)(F)F)nc2c(C(F)(F)F)cccc12 (stereo not drawn) [Example 24, α-Benzylaminomethyl-2,8-bis(trifluoromethyl)-4-quinolinemethanol]
- pKi [1]: 5.61

Structure (SMILES): OC(CNC1CCC1)c1cc(C(F)(F)F)nc2c(C(F)(F)F)cccc12 (stereo not drawn) [Example 26, α-Cyclobutylaminomethyl-2,8-bis(trifluoromethyl)-4-quinolinemethanol]
- pKi [1]: 5.55

Structure (SMILES): OC1(c2cc(C(F)(F)F)nc3c(C(F)(F)F)cccc23)CNC1 [Example 31, 3-(2,8-Bis(Trifluoromethyl)-4-quinolinyl)-3-azetidinol]
- melting point: 201 °C (dec.)

Structure (SMILES): COC(CNCc1ccccc1)c1cc(C(F)(F)F)nc2c(C(F)(F)F)cccc12 (stereo not drawn) (as salt: hydrochloride) [Example 30, N-Benzyl-β-methoxy-2,8-bis(trifuoromethyl)-4-quinolineethanamine Hydrochloride]
- melting point: 232 to 233 °C

Structure (SMILES): O[C@H](c1cc(C(F)(F)F)nc2c(C(F)(F)F)cccc12)[C@@H]1CCCCN1Cc1ccccc1 [Example 9, (11R, 2′S)-α-(1-Benzyl-2-piperidinyl)-2,8-bis(trifluoromethyl)-4-quinolinemethanol]
- pKi [1]: 6.74
